One assay concerns the target T1, human B1R (Homo sapiens, UniProt P46663).
T1 construct: expressed in transfected cells; host or cells: CHO K1 cells
T1 sequence (P46663 1-353): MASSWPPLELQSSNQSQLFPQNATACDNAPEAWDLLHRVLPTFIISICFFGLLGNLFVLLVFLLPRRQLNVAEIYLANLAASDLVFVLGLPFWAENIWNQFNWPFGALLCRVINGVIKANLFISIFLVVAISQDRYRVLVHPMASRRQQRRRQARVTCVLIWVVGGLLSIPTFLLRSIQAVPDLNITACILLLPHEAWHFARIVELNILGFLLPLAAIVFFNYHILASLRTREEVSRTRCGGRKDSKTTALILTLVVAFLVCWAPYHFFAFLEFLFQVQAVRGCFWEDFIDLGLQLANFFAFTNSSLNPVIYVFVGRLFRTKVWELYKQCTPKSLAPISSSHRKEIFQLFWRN
Nature of the assay: Functional investigation on the bradykinin 1 receptor (B1R), cell-based fluorescent calcium-mobilization assay (FLIPR/Novostar), human. To be noted: 10 μM test substance; CHO K1 cells stably transfected with human B1R gene; agonist Lys-Des-Arg9-bradykinin at EC80; % inhibition compared with maximum achievable inhibition; read-out: B1R antagonism, human [10 μM] % inhibition. As for the experimental part: (§1) The agonistic or antagonistic action of substances can be quantified on the bradykinin 1 receptor (B1R) of the human and rat species with ectopically expressing cell lines (CHO K1 cells) and with the aid of a Ca^2+-sensitive dyestuff (Fluo-4) in a fluorescent imaging plate reader (FLIPR). The figure in % activation is based on the Ca^2+ signal after addition of Lys-Des-Arg^9-bradykinin (0.5 nM) or Des-Arg^9-bradykinin (100 nM). Antagonists lead to a suppression of the Ca^2+ inflow after addition of the agonist. % inhibition compared with the maximum achievable inhibition is stated.
(§2) The agonistic or antagonistic action of substances can be determined on the bradykinin 1 receptor (B1R) of humans and rats by means of a cell-based flourescent calcium-mobilization assay. According to this assay agonist-induced increase of intracellular free Ca^2+ is quantified by means of a Ca^2+-sensitive dye (Fluo-4 type, Molecular Probes Europe BV, Leiden, Netherlands), in a Fluorescent Imaging Plate Reader (FLIPR, Molecular Devices, Sunnyvale, USA) and/or the Novostar (BMG Labtech GmbH, Offenburg, Germany).
(§3) Chinese hamster ovary cells (CHO K1 cells), which are stably transfected with the human B1R gene (hB1R cells) or with the B1R gene of rats (rB1R cells), are used. For functional investigations these cells are seeded into black 96-well plates with a clear bottom (BD Biosciences, Heidelberg, Germany or Greiner, Frickenhausen, Germany) in a density of 20,000-35,000 cells/well. The cells are incubated overnight in a humidified atmosphere at 37° C. and 5% CO2 in culture medium (hB1R cells: Nutrient Mixture Ham's F12, Gibco Invitrogen GmbH, Karlsruhe, Germany or DMEM, Sigma-Aldrich, Taufkirchen, Germany; rB1R cells: D-MEM/F12, Gibco Invitrogen GmbH, Karlsruhe, Germany) with 10 vol. % FBS (foetal bovine serum, Gibco Invitrogen GmbH, Karlsruhe, Germany).
(§4) On the following day the cells are loaded with the Ca^2+-sensitive dye Fluo-4-AM (Molecular Probes Europe BV, Leiden, Netherlands):
(§5) Method A: The medium of the cells is removed and cell plates are incubated with loading solution, which contains 2.13 μM Fluo-4-AM, 2.5 mM probenecid (Sigma-Aldrich, Taufkirchen, Germany), and 10 mM HEPES (Sigma-Aldrich, Taufkirchen, Germany) in HBSS buffer (Hank's buffered saline solution, Gibco Invitrogen GmbH, Karlsruhe, Germany) for 60 minutes at 37° C. After the plates are washed twice with HBSS buffer, HBSS buffer supplemented 0.1% BSA (bovine serum albumin; Sigma-Aldrich, Taufkirchen, Germany), 5.6 mM glucose and 0.05% gelatine (Merck KGaA, Darmstadt, Germany) is added. Cell plates are incubated for at least 20 minutes in the dark at room temperature before they are used for the Ca^2+ measurement in the FLIPR or Novostar.
(§6) Method B: The plates are washed with buffer A (15 mM HEPES, 80 mM NaCl, 5 mM KCl, 1.2 mM CaCl2, 0.7 mM MgSO4, 2 mg/ml glucose, 2.5 mM probenecid) and subsequently loaded with buffer A containing 2.4 μM Fluo-4-AM and 0.025% pluronic F127 (Sigma-Aldrich, Taufkirchen, Germany) for 60 minutes at 37° C. Cell plates are washed twice with buffer A. Then, buffer A supplemented with 0.05% BSA and 0.05% gelatine is added and cell plates are incubated in the dark at room temperature for at least 20 minutes before measurement in the FLIPR or Novostar is started.
(§7) The Ca^2+-dependent fluorescence is measured both before and after the addition of substances (λex=488 nm, λem=540 nm). For quantification of the effect the highest fluorescence intensity (FC, fluorescence counts) over time is given. The FLIPR protocol consists of two substance additions, done within the instrument while continuously monitoring the Ca^2+-dependent fluorescence at 540 nm. When the Novostar was used, one addition had to be done outside the instrument. Test substances (10 μM) are initially pipetted onto the cells and the intracellular Ca^2+ rise is compared with the control (hB1R: Lys-Des-Arg9-bradykinin>=50 nM; rB1R: Des-Arg9-bradykinin>=1 μM). […]

For a further assay, the target named is T2, B1R of rats (Rattus norvegicus, UniProt P97583).
T2 construct: expressed in transfected cells; host or cells: CHO K1 cells
T2 sequence (P97583 1-337): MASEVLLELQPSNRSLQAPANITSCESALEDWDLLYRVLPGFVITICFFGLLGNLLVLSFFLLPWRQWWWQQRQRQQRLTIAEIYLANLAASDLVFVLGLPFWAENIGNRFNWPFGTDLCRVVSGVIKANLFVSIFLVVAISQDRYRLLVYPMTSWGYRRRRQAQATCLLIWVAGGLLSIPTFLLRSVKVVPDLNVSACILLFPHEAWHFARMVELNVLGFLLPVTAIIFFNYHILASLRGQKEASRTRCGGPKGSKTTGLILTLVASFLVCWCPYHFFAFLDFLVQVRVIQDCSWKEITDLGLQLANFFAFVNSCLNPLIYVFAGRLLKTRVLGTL
Briefly: Functional investigation on the bradykinin 1 receptor (B1R), cell-based fluorescent calcium-mobilization assay (FLIPR/Novostar), rat. To be noted: 10 μM test substance; CHO K1 cells stably transfected with rat B1R gene; agonist Des-Arg9-bradykinin at EC80; % inhibition compared with maximum achievable inhibition; read-out: B1R antagonism, rat [10 μM] % inhibition. The procedure:
as §1, §2, §3, §4, §5, §6, §7

With `CN1CCN(C2(CNC(=O)c3ccccc3)CCN(C(=O)COCC3CCc4ccccc4N3S(=O)(=O)c3ccc(Cl)c(Cl)c3)CC2)CC1` (stereo not shown) [Example 23, N-((1-(2-((1-(3,4-dichlorophenylsulfonyl)-1,2,3,4-tetrahydroquinolin-2-yl)methoxy)acetyl)-4-(4-methylpiperazin-1-yl)piperidin-4-yl)methyl)benzamide], the inhibition at 10 µM at human B1R worked out at 99%; on B1R of rats, 54%.
Take `CN1CCN(C2(CNC(=O)c3ccccn3)CCN(C(=O)CC(NS(=O)(=O)c3ccc4ccccc4c3)c3ccccc3)CC2)CC1` (stereo not shown) [Example 19, N-((4-(4-methylpiperazin-1-yl)-1-(3-(naphthalene-2-sulfonamido)-3-phenylpropanoyl)piperidin-4-yl)methyl)picolinamide]: the inhibition at 10 µM at human B1R turned out to be 102%; on B1R of rats, 83%.
`COc1cc(C)c(S(=O)(=O)N2CCCCC2COCCC(=O)N2CCC(CNC(=O)c3ccncc3)(N3CCN(C)CC3)CC2)c(C)c1` (stereo not shown) [Example 52, N-((1-(3-((1-(4-Methoxy-2,6-dimethylphenylsulfonyl)piperidin-2-yl)methoxy)propanoyl)-4-(4-methylpiperazin-1-yl)piperidin-4-yl)methyl)isonicotinamide]: the inhibition at 10 µM on human B1R was 100%; on B1R of rats it was 102%.
Regarding `CC(=O)NCC1(N2CCN(c3ccncc3)CC2)CCN(C(=O)CC(NS(=O)(=O)c2ccc3ccccc3c2)c2ccccc2)CC1` (stereo not shown) [Example 14, N-((1-(3-(naphthalene-2-sulfonamido)-3-phenylpropanoyl)-4-(4-(pyridin-4-yl)piperazin-1-yl)piperidin-4-yl)methyl)acetamide], the inhibition at 10 µM was determined as 100% on human B1R and 82% at B1R of rats.
Regarding `COc1cc(C)c(S(=O)(=O)N(C)CCOCC(=O)N2CCC(CNC(=O)c3cccnc3)(N3CCN(C)CC3)CC2)c(C)c1` [Example 32, N-((1-(2-(2-(4-methoxy-N,2,6-trimethylphenylsulfonamido)ethoxy)acetyl)-4-(4-methylpiperazin-1-yl)piperidin-4-yl)methyl)nicotinamide], the results for the inhibition at 10 µM on human B1R and at B1R of rats were 104% and 101%, respectively.
For the molecule `Cc1cc(S(=O)(=O)N2CCCCC2CCC(=O)N2CCC(CNC(=O)c3ccccc3)(N3CCN(C)CC3)CC2)c(C)cc1Cl` (stereo not shown) [Example 6, N-((1-(3-(1-(4-chloro-2,5-dimethylphenylsulfonyl)piperidin-2-yl)propanoyl)-4-(4-methylpiperazin-1-yl)piperidin-4-yl)methyl)benzamide], the figures for the inhibition at 10 µM at human B1R and on B1R of rats were 99% and 24%, respectively.
The like results for `COc1cc(C)c(S(=O)(=O)N(C)CCOCC(=O)N2CCC(CNC(=O)c3ccccc3)(N3CCN(C)CC3)CC2)c(C)c1` [Example 24, N-((1-(2-(2-(4-methoxy-N,2,6-trimethylphenylsulfonamido)ethoxy)acetyl)-4-(4-methylpiperazin-1-yl)piperidin-4-yl)methyl)benzamide] were, in that order, 103% and 101%.
With `CC(=O)NCC1(N2CCN(c3ccncc3)CC2)CCN(C(=O)CC2CCCCN2S(=O)(=O)c2cccc(C(F)(F)F)c2)CC1` (stereo not shown) [Example 36, N-((4-(4-(pyridin-4-yl)piperazin-1-yl)-1-(2-(1-(3-(trifluoromethyl)phenyl-sulfonyl)piperidin-2-yl)acetyl)piperidin-4-yl)methyl)acetamide], the inhibition at 10 µM at human B1R turned out to be 99%; on B1R of rats, 101%.
Turning to `COc1cc(C)c(S(=O)(=O)N2CCCCC2COCC(=O)N2CCC(CNC(C)=O)(N3CCN(C)CC3)CC2)c(C)c1` (stereo not shown) [Example 27, N-((1-(2-((1-(4-methoxy-2,6-dimethylphenylsulfonyl)piperidin-2-yl)methoxy)acetyl)-4-(4-methylpiperazin-1-yl)piperidin-4-yl)methyl)acetamide], the inhibition at 10 µM on human B1R is 103%; at B1R of rats, 102%.
Turning to `CN1CCN(C2(CNC(=O)c3ccccc3)CCN(C(=O)CC(NS(=O)(=O)c3ccc4ccccc4c3)c3ccccc3)CC2)CC1` (stereo not shown) [Example 16, N-((4-(4-methylpiperazin-1-yl)-1-(3-(naphthalene-2-sulfonamido)-3-phenylpropanoyl)piperidin-4-yl)methyl)benzamide], the inhibition at 10 µM at human B1R turned out to be 94%; on B1R of rats, 31%.
In the case of `CN1CCN(C2(CNC(=O)c3ccncc3)CCN(C(=O)CC(NS(=O)(=O)c3ccc4ccccc4c3)c3ccccc3)CC2)CC1` (stereo not shown) [Example 37, N-((4-(4-methylpiperazin-1-yl)-1-(3-(naphthalene-2-sulfonamido)-3-phenylpropanoyl)piperidin-4-yl)methyl)isonicotinamide], the inhibition at 10 µM was determined as 46% on human B1R and 71% at B1R of rats.
Consider `CN1CCN(C2(CNC(=O)c3ccccn3)CCN(C(=O)COCC3CCc4ccccc4N3S(=O)(=O)c3ccc(Cl)c(Cl)c3)CC2)CC1` (stereo not shown) [Example 20, N-((1-(2-((1-(3,4-dichlorophenylsulfonyl)-1,2,3,4-tetrahydroquinolin-2-yl)-methoxy)acetyl)-4-(4-methylpiperazin-1-yl)piperidin-4-yl)methyl)picolinamide], for which the inhibition at 10 µM was found to be 91% at human B1R and 60% on B1R of rats.
For `CN1CCN(C2(CNC(=O)Cc3ccccc3)CCN(C(=O)COCC3CCc4ccccc4N3S(=O)(=O)c3ccc(Cl)c(Cl)c3)CC2)CC1` (stereo not shown) [Example 13, N-((1-(2-((1-(3,4-dichlorophenylsulfonyl)-1,2,3,4-tetrahydroquinolin-2-yl)methoxy)acetyl)-4-(4-methylpiperazin-1-yl)piperidin-4-yl)methyl)-2-phenylacetamide], the inhibition at 10 µM at human B1R was 104%; on B1R of rats it was 52%.
In the case of `Cc1cc(S(=O)(=O)N2CCCCC2CCC(=O)N2CCC(CNC(=O)c3ccccn3)(N3CCN(C)CC3)CC2)c(C)cc1Cl` (stereo not shown) [Example 9, N-((1-(3-(1-(4-chloro-2,5-dimethylphenylsulfonyl)piperidin-2-yl)propanoyl)-4-(4-methylpiperazin-1-yl)piperidin-4-yl)methyl)picolinamide], the inhibition at 10 µM on human B1R worked out at 99%; at B1R of rats, 11%.

As a reminder, the inhibition is the relative decrease from the control value, in per cent.
